From article PMC6386767, “Characterization of recombinant fructose-1,6-bisphosphatase gene mutations: evidence of inhibition/activation of FBPase protein by gene mutation” (Bioscience Reports, 2019)
Changes are numbered by the printed parent chain. Blank lines part the entries; values can stand above or below the molecule they belong to.

Tests used:
Format in all cases: biochemical
pig kidney FBPase M177A = target: T1, pig kidney FBPase M177A (Sus scrofa, UniProt P00636, M178A); test: Malachite Green kinetic assay, M177A mutant; settings: for IC50: FBP substrate 10 to 50 µM
T1 construct: His6 (C); made in house; host or cells: Escherichia coli BL21 (DE3)
T1 sequence (P00636 1-338 M178A): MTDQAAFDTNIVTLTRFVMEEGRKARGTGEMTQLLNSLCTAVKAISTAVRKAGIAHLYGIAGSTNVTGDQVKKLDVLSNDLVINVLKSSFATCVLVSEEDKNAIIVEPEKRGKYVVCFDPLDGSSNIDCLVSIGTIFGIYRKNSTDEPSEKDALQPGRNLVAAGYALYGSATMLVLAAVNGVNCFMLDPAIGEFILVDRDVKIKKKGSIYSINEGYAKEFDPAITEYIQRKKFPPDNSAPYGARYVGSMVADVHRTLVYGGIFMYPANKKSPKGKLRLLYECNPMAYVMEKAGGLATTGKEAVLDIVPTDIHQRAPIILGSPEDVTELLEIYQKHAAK
Procedure: (§1) For the kinetic assay, a standard curve was obtained from an ammonium molybdate Malachite Green inorganic phosphate assay (OD660 nm). The purified FBPase protein was dialyzed ×3 in 50 mM Tris buffer at pH 7.5 at 4°C. For enzyme concentration, absorbency values were recorded for all five mutant proteins using spectrophotometer readings at OD280 nm. To quantitate enzyme concentration, the enzymes were calculated based on the quantity of micrograms per microliter (µg/µl) present. Final concentration of WT and mutant enzymes was between 2.5 and 5.0 µg/µl. Using a colorimetric assay as described below, specific activity (SA) was determined. At last, all kinetic and binding assays described below were performed in 50 mM Tris pH 7.5.
(§2) Kinetic assays were performed for WT and mutant enzymes to identify functional differences between the WT enzyme and the mutants. […] Readings recorded at OD660 nm for each enzyme were applied to the standard curve equation. Micromoles of inorganic phosphate were calculated to determine the SA of mutant enzymes.
(§3) For each clone, the kinetic assay was performed in duplicates of triplicates. Malachite Geen was used to detect inorganic phosphate. Two separate clones were processed independently of the same mutant. All kinetic data were fit to symmetric sigmoidal curve using Origin software based on methods previously described [[27–29]]. More specifically, for kinetic parameters established via curve fitting (shown in Tables 1–3; and in Figure 5A,B), the equation y = d + (a − d)/1 + (x/c)^b was used where ‘x’ is represented by apparent Michelis constant (Km) when y = Vmax. […] P-values were significant at <0.001 and represent a comparison with the WT enzyme.

pig kidney FBPase K112A = target: T2, pig kidney FBPase K112A (Sus scrofa, UniProt P00636, K113A); test: Malachite Green kinetic assay, K112A mutant; settings: for IC50: FBP substrate 10 to 50 µM
T2 construct: His6 (C); made in house; host or cells: Escherichia coli BL21 (DE3)
T2 sequence (P00636 1-338 K113A): T1 sequence (P00636 1-338 M178A) with K113A, A178M
Procedure: as §1, §2, §3

pig kidney FBPase M248D = target: T3, pig kidney FBPase M248D (Sus scrofa, UniProt P00636, M249D); test: Malachite Green kinetic assay, M248D mutant; settings: for IC50: FBP substrate 10 to 50 µM
T3 construct: His6 (C); made in house; host or cells: Escherichia coli BL21 (DE3)
T3 sequence (P00636 1-338 M249D): T1 sequence (P00636 1-338 M178A) with A178M, M249D
Procedure: as §1, §2, §3

pig kidney FBPase Y164A = target: T4, pig kidney FBPase Y164A (Sus scrofa, UniProt P00636, Y165A); test: Malachite Green kinetic assay, Y164A mutant; settings: enzyme Y164A; for IC50: FBP substrate 10 to 50 µM
T4 construct: His6 (C); made in house; host or cells: Escherichia coli BL21 (DE3)
T4 sequence (P00636 1-338 Y165A): T1 sequence (P00636 1-338 M178A) with Y165A, A178M
Procedure: as §1, §2, §3

pig kidney FBPase L73A = target: T5, pig kidney FBPase L73A (Sus scrofa, UniProt P00636, L74A); test: Malachite Green kinetic assay, L73A mutant; settings: enzyme L73A; for IC50: FBP substrate 10 to 50 µM
T5 construct: His6 (C); made in house; host or cells: Escherichia coli BL21 (DE3)
T5 sequence (P00636 1-338 L74A): T1 sequence (P00636 1-338 M178A) with L74A, A178M
Procedure: as §1, §2, §3

[1] = association (binding) constant from saturation curve

- AMP Hill coefficient (pig kidney FBPase M177A; enzyme M177A_1): 2.6 (± 0.2)
- IC50 (pig kidney FBPase M177A; enzyme M177A_1): 3500 nM
- AMP Hill coefficient (pig kidney FBPase M177A; enzyme M177A_2 (second clone)): 2.8 (± 0.1)
- IC50 (pig kidney FBPase M177A; enzyme M177A_2): 3900 nM
- IC50 (pig kidney FBPase K112A; enzyme K112A_1): 68500 nM
- IC50 (pig kidney FBPase K112A; enzyme K112A_2): 52300 nM
- AMP Hill coefficient (pig kidney FBPase M248D; enzyme M248D): 2.5 (± 0.2)
- IC50 (pig kidney FBPase M248D; enzyme M248D): 7200 nM
- AMP Hill coefficient (pig kidney FBPase Y164A): 2.8 (± 0.2)
- IC50 (pig kidney FBPase Y164A): 2500 nM
- AMP Hill coefficient (pig kidney FBPase L73A): 2.1 (± 0.2)
- IC50 (pig kidney FBPase L73A): 6950 nM
SMILES: Nc1ncnc2c1ncn2[C@@H]1O[C@H](COP(=O)(O)O)[C@@H](O)[C@H]1O [AMP]

- Ki (pig kidney FBPase M177A; enzyme M177A): 170 nM
- IC50 (pig kidney FBPase M177A; enzyme M177A_1): 750 nM
- IC50 (pig kidney FBPase M177A; enzyme M177A_2): 620 nM
- Ki (pig kidney FBPase K112A; enzyme K112A): 240 nM
- IC50 (pig kidney FBPase K112A; enzyme K112A_1): 1500 nM
- IC50 (pig kidney FBPase K112A; enzyme K112A_2): 1500 nM
- Ki (pig kidney FBPase M248D; enzyme M248D): 1500 nM
- IC50 (pig kidney FBPase M248D; enzyme M248D): 10500 nM
- Ki (pig kidney FBPase Y164A): 150 nM
- IC50 (pig kidney FBPase Y164A): 950 nM
- Ki (pig kidney FBPase L73A): 1350 nM
- IC50 (pig kidney FBPase L73A): 7250 nM
SMILES: O=P(O)(O)OC[C@H]1O[C@@](CO)(OP(=O)(O)O)[C@@H](O)[C@@H]1O [F2,6-BP, fructose-2,6-bisphosphate]

- Ka (pig kidney FBPase M177A; enzyme M177A, association (binding) constant from saturation curve): 0.49 (± 0.18) mM
- Hill coefficient (pig kidney FBPase M177A; enzyme M177A, for magnesium): 2.05 (± 0.12)
- Ka (pig kidney FBPase K112A; enzyme K112A, association (binding) constant from saturation curve): 0.51 (± 0.15) mM
- Hill coefficient (pig kidney FBPase K112A; enzyme K112A, for magnesium): 1.98 (± 0.15)
- decrease in Ka for magnesium binding (pig kidney FBPase M248D; enzyme M248D vs WT): 6.25
- Ka (pig kidney FBPase M248D; enzyme M248D, association (binding) constant from saturation curve): 0.08 (± 0.02) mM
- Hill coefficient (pig kidney FBPase M248D; enzyme M248D, for magnesium): 2.20 (± 0.17)
- Ka (pig kidney FBPase Y164A; [1]): 0.50 (± 0.15) mM
- Hill coefficient (pig kidney FBPase Y164A; for magnesium): 2.15 (± 0.12)
- Ka (pig kidney FBPase L73A; [1]): 0.48 (± 0.17) mM
- Hill coefficient (pig kidney FBPase L73A; for magnesium): 2.95 (± 0.17)
SMILES: [Mg+2] [Mg^2+, magnesium]
